PubChem BioAssay AID250 (DTP/NCI, 2004)
Where “and” joins values, the source holds several entries; their conditions need not be identical. Equal entries are not always repeated. Toxic doses and inconclusive results are not listed.

Test system: BDF1 mice, L1210 leukemia sc, survival T/C
Experiment: NCI In Vivo Anticancer Drug Screen. Data for tumor model L1210 Leukemia (subcutaneous) in B6D2F1 (BDF1) mice
Details: endpoint: median survival time, higher = longer survival
Summary of the method: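 Transplantable tumor-bearing mice; survival or tumor size recorded; result = T/C, treated vs vehicle control.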

[1] = dose: 39.0 mg/kg/injection, schedule: Q01DX Z (sc), vehicle: saline
[2] = dose: 65.0 mg/kg/injection, schedule: Q01DX Z (sc), vehicle: saline
[3] = dose: 108.0 mg/kg/injection, schedule: Q01DX Z (sc), vehicle: saline

## CC(=O)NC(CS)C(=O)O (stereo not given)
dose: 600.0 mg/kg/injection, schedule: Q01DX001 (ip), vehicle: saline
  T/C: 94 % of control and 97 % of control
dose: 600.0 mg/kg/injection, schedule: Q01DX015 (ip), vehicle: saline
  T/C: 94 % of control and 97 % of control
dose: 600.0 mg/kg/injection, schedule: Q07DX003 (ip), vehicle: saline
  T/C: 94 % of control and 97 % of control
dose: 1000.0 mg/kg/injection, schedule: Q01DX001 (ip), vehicle: saline
  T/C: 94 % of control and 96 % of control
dose: 1000.0 mg/kg/injection, schedule: Q01DX015 (ip), vehicle: saline
  T/C: 103 % of control and 105 % of control
dose: 1000.0 mg/kg/injection, schedule: Q07DX003 (ip), vehicle: saline
  T/C: 99 % of control and 100 % of control

## O=NN(CCCl)C(=O)N[C@H]1CCCC[C@@H]1Cl
dose: 3.0 mg/kg/injection, schedule: Q01DX Z (sc), vehicle: carboxymethylcellulose (CMC)
  T/C: 111 % of control
dose: 5.0 mg/kg/injection, schedule: Q01DX Z (sc), vehicle: carboxymethylcellulose (CMC)
  T/C: 111 % of control
dose: 8.4 mg/kg/injection, schedule: Q01DX Z (sc), vehicle: carboxymethylcellulose (CMC)
  T/C: 211 % of control
dose: 11.3 mg/kg/injection, schedule: Q01DX Z (sc), vehicle: carboxymethylcellulose (CMC)
  T/C: 668 % of control
dose: 14.0 mg/kg/injection, schedule: Q01DX Z (sc), vehicle: carboxymethylcellulose (CMC)
  T/C: 336 % of control and 472 % of control
dose: 22.5 mg/kg/injection, schedule: Q01DX Z (sc), vehicle: carboxymethylcellulose (CMC)
  T/C: 493 % of control
dose: 23.0 mg/kg/injection, schedule: Q01DX Z (oral), vehicle: carboxymethylcellulose (CMC)
  T/C: 326 % of control
dose: 23.0 mg/kg/injection, schedule: Q01DX Z (sc), vehicle: carboxymethylcellulose (CMC)
  T/C: 272 % of control and 336 % of control
dose: 39.0 mg/kg/injection, schedule: Q01DX Z (oral), vehicle: carboxymethylcellulose (CMC)
  T/C: 189 % of control
dose: 39.0 mg/kg/injection, schedule: Q01DX Z (sc), vehicle: carboxymethylcellulose (CMC)
  T/C: 278 % of control
dose: 45.0 mg/kg/injection, schedule: Q01DX Z (sc), vehicle: carboxymethylcellulose (CMC)
  T/C: 300 % of control
dose: 65.0 mg/kg/injection, schedule: Q01DX Z (oral), vehicle: carboxymethylcellulose (CMC)
  T/C: 163 % of control
dose: 65.0 mg/kg/injection, schedule: Q01DX Z (sc), vehicle: carboxymethylcellulose (CMC)
  T/C: 194 % of control
dose: 90.0 mg/kg/injection, schedule: Q01DX Z (sc), vehicle: carboxymethylcellulose (CMC)
  T/C: 150 % of control
dose: 180.0 mg/kg/injection, schedule: Q01DX Z (oral), vehicle: carboxymethylcellulose (CMC)
  T/C: 115 % of control
dose: 300.0 mg/kg/injection, schedule: Q01DX Z (oral), vehicle: carboxymethylcellulose (CMC)
  T/C: 105 % of control

## COc1ccc2[nH]c3c(C)c4ccncc4c(C)c3c2c1
[1]
  T/C: 100 % of control
[2]
  T/C: 100 % of control
[3]
  T/C: 112 % of control
dose: 180.0 mg/kg/injection, schedule: Q01DX Z (sc), vehicle: saline
  T/C: 116 % of control
dose: 300.0 mg/kg/injection, schedule: Q01DX Z (sc), vehicle: saline
  T/C: 116 % of control

## C[C@H](CN1CC(=O)NC(=O)C1)N1CC(=O)NC(=O)C1
dose: 8.0 mg/kg/injection, schedule: Q01DX009 (ip), vehicle: water
  T/C: 104 % of control
dose: 16.0 mg/kg/injection, schedule: Q01DX009 (ip), vehicle: water
  T/C: 119 % of control
dose: 32.0 mg/kg/injection, schedule: Q01DX009 (ip), vehicle: water
  T/C: 119 % of control and 124 % of control
dose: 256.0 mg/kg/injection, schedule: Q01DX009 (ip), vehicle: water
  T/C: 118 % of control
dose: 512.0 mg/kg/injection, schedule: Q01DX009 (ip), vehicle: water
  T/C: 113 % of control

## COC(=O)c1[nH]cnc1/N=N/N(C)C
dose: 14.0 mg/kg/injection, schedule: Q01DX Z (sc), vehicle: saline
  T/C: 109 % of control
dose: 23.0 mg/kg/injection, schedule: Q01DX Z (sc), vehicle: saline
  T/C: 100 % of control
[1]
  T/C: 109 % of control
[2]
  T/C: 104 % of control
[3]
  T/C: 159 % of control

## CC(CNC(=O)CCOS(C)(=O)=O)NC(=O)CCOS(C)(=O)=O (stereo not given)
dose: 108.0 mg/kg/injection, schedule: Q01DX Z (sc), vehicle: methylcellulose (MC)
  T/C: 105 % of control
dose: 180.0 mg/kg/injection, schedule: Q01DX Z (sc), vehicle: carboxymethylcellulose (CMC)
  T/C: 175 % of control
dose: 180.0 mg/kg/injection, schedule: Q01DX Z (sc), vehicle: methylcellulose (MC)
  T/C: 115 % of control
dose: 300.0 mg/kg/injection, schedule: Q01DX Z (sc), vehicle: carboxymethylcellulose (CMC)
  T/C: 150 % of control
dose: 300.0 mg/kg/injection, schedule: Q01DX Z (sc), vehicle: methylcellulose (MC)
  T/C: 120 % of control
dose: 500.0 mg/kg/injection, schedule: Q01DX Z (sc), vehicle: methylcellulose (MC)
  T/C: 120 % of control
dose: 833.0 mg/kg/injection, schedule: Q01DX Z (sc), vehicle: carboxymethylcellulose (CMC)
  T/C: 110 % of control
dose: 833.0 mg/kg/injection, schedule: Q01DX Z (sc), vehicle: methylcellulose (MC)
  T/C: 110 % of control
